From patent US10581022B2, “Polymerizable liquid crystal compound, composition, liquid crystal polymerization film-kind thereof and use thereof” (JNC CORPORATION, priority 2015, dated 2020)

Assay: Solubility of compound in solvent
Type: physicochemical
Design: key: Good: represents that the compound was completely dissolved; Poor: represents that an insoluble matter remained
Conditions: 40° C., after 30 minutes, visual
Procedure: With regard to various solvents, a specific amount of compound (1-1-1-1) was added to various solvents each, and the resulting mixture was warmed in warm water at 40° C., and an aspect after 30 minutes was visually confirmed. A similar method was tried in compound (1-1-2-1), compound (C-1) and compound (C-2) in place of compound (1-1-1-1).
An amount of the compound added as described in Table 4 is expressed in terms of a relative value when a total weight of the solvent and the compound is taken as 100% by weight. A term “Good” in Table 4 represents that the compound was completely dissolved, and a term “Poor” in Table 4 represents that an insoluble matter remained.

C=CC(=O)OCCCCCCOc1ccc(CCC(=O)O[C@H]2CC[C@H](C(=O)Oc3ccc(OC(=O)[C@H]4CC[C@H](OC(=O)CCc5ccc(OCCCCCCOC(=O)C=C)cc5)CC4)c4nc(-c5ccccc5)cnc34)CC2)cc1 [Compound (1-1-1-1)]
solubility in 2-acetoxy-1-methoxypropane (15% by weight of compound): Poor
solubility in 4-methyl-2-pentanone (15% by weight of compound): Poor
solubility in cyclohexanone (15% by weight of compound): Good
solubility in methoxybenzene (15% by weight of compound): Good
solubility in 2-acetoxy-1-methoxypropane (30% by weight of compound): Poor
solubility in 4-methyl-2-pentanone (30% by weight of compound): Poor
solubility in cyclohexanone (30% by weight of compound): Good
solubility in methoxybenzene (30% by weight of compound): Good

C=CC(=O)OCCCCCCOc1ccc(CCC(=O)O[C@H]2CC[C@H](C(=O)Oc3ccc(OC(=O)[C@H]4CC[C@H](OC(=O)CCc5ccc(OCCCCCCOC(=O)C=C)cc5)CC4)c4nc(-c5ccccc5)c(C)nc34)CC2)cc1 [Compound (1-1-2-1)]
solubility in 2-acetoxy-1-methoxypropane (15% by weight of compound): Good
solubility in 4-methyl-2-pentanone (15% by weight of compound): Good
solubility in cyclohexanone (15% by weight of compound): Good
solubility in methoxybenzene (15% by weight of compound): Good
solubility in 2-acetoxy-1-methoxypropane (30% by weight of compound): Poor
solubility in 4-methyl-2-pentanone (30% by weight of compound): Poor
solubility in cyclohexanone (30% by weight of compound): Good
solubility in methoxybenzene (30% by weight of compound): Good

C=CC(=O)OCCCCOc1ccc(OC(=O)[C@H]2CC[C@H](C(=O)Oc3ccc(OC(=O)[C@H]4CC[C@H](C(=O)Oc5ccc(OCCCCOC(=O)C=C)cc5)CC4)c4sc(-c5ccccc5)nc34)CC2)cc1 [Compound (C-1)]
solubility in 2-acetoxy-1-methoxypropane (15% by weight of compound): Poor
solubility in 4-methyl-2-pentanone (15% by weight of compound): Poor
solubility in cyclohexanone (15% by weight of compound): Good
solubility in methoxybenzene (15% by weight of compound): Good
solubility in 2-acetoxy-1-methoxypropane (30% by weight of compound): Poor
solubility in 4-methyl-2-pentanone (30% by weight of compound): Poor
solubility in cyclohexanone (30% by weight of compound): Poor
solubility in methoxybenzene (30% by weight of compound): Poor

C=CC(=O)OCCCCOc1ccc(OC(=O)C2CCC(C(=O)Oc3ccc(OC(=O)C4CCC(C(=O)Oc5ccc(OCCCCOC(=O)C=C)cc5)CC4)c(C=NNc4nc5ccccc5s4)c3)CC2)cc1 (centres unmarked) [Compound (C-2)]
solubility in 2-acetoxy-1-methoxypropane (15% by weight of compound): Poor
solubility in 4-methyl-2-pentanone (15% by weight of compound): Poor
solubility in cyclohexanone (15% by weight of compound): Good
solubility in methoxybenzene (15% by weight of compound): Good
solubility in 2-acetoxy-1-methoxypropane (30% by weight of compound): Poor
solubility in 4-methyl-2-pentanone (30% by weight of compound): Poor
solubility in cyclohexanone (30% by weight of compound): Poor
solubility in methoxybenzene (30% by weight of compound): Poor
